Structures are written as SMILES. The source made the active and inactive calls. The rule behind the calls is not given here.

In assay [1] the target is Glycogen synthase kinase-3 beta (Homo sapiens, UniProt P49841). The assay can be described thus: Inhibition of human recombinant N-terminal His-tagged GSK3beta expressed in Escherichia coli using RRRPASVPPSPSLS RHS(pS)HQRR as substrate incubated for 30 mins in presence of ATP by Kinase-Glo reagent based luminescence assay.
Assay [2] concerns the target Acetylcholinesterase (Electrophorus electricus, UniProt O42275). The assay can be described thus: Inhibition of electric eel recombinant AChE preincubated for 1 min in presence of DNTB followed by addition of acetylthiocholine iodide substrate and measured after 20 mins by Ellman's method.
For assay [3], the target named is Acetylcholinesterase (Homo sapiens, UniProt P22303). The assay can be described thus: Inhibition of human recombinant AChE preincubated for 1 min in presence of DNTB followed by addition of acetylthiocholine iodide substrate and measured after 20 mins by Ellman's method.
In assay [4] the test system is Mus musculus. The assay can be described thus: Improvement in learning and spatial memory in amyloid beta (1 to 42)-induced mouse model of Alzheimer's disease assessed as increase in spontaneous alteration at 10 mg/kg/day, po pretreated with amyloid beta42 for 3 days followed by treatment with compound and measured after 9 days measured by Y-maze test. The following applies: time 9.0 day. It is filed as functional, organism-based.

In assay [5] the test system is Mus musculus. The assay can be described thus: Cognitive enhancing effect in mouse model of scopolamine-induced amnesia assessed as decrease in escape latency at 10 mg/kg/day, po measured by Morris water maze test. The class given is functional, organism-based.
Assay [6] relates to Mus musculus. Kind of assay: Improvement in learning and spatial memory in amyloid beta (1 to 42)-induced mouse model of Alzheimer's disease at 10 mg/kg/day, po pretreated with amyloid beta42 for 3 days followed by treatment with compound and measured after 9 days measured by Y-maze test. The class given is functional, organism-based. The following applies: time 9.0 day.

Sequence of Acetylcholinesterase (Electrophorus electricus, UniProt O42275) (O42275 whole entry): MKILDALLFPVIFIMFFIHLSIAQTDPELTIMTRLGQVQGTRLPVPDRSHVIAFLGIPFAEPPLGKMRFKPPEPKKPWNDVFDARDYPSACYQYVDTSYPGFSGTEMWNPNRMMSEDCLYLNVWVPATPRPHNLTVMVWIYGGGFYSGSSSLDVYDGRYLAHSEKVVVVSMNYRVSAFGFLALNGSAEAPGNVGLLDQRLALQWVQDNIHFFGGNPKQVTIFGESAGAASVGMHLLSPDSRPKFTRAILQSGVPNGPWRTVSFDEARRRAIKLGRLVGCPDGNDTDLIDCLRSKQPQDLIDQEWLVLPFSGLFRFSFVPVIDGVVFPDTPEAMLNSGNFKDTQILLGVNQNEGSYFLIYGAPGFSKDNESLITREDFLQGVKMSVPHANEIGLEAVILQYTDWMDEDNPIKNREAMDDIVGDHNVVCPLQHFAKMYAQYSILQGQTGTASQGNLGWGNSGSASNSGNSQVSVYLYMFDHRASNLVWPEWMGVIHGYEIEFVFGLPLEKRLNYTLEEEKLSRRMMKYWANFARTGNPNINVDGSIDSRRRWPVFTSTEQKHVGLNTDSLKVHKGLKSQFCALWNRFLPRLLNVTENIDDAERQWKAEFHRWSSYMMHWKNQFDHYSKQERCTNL
Sequence of Glycogen synthase kinase-3 beta (P49841 whole entry): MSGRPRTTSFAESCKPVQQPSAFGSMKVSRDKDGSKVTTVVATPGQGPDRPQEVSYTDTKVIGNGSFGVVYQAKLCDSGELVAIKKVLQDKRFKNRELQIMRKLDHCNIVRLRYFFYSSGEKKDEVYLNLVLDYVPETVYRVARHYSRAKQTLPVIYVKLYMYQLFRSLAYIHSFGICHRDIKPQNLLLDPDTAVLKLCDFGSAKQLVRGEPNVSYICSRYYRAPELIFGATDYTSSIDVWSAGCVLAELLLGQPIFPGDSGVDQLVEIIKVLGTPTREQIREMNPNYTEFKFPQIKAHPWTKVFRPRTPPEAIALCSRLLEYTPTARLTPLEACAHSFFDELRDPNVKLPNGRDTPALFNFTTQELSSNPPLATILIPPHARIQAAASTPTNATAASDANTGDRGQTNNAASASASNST
Sequence of Acetylcholinesterase (Homo sapiens, UniProt P22303) (P22303 whole entry): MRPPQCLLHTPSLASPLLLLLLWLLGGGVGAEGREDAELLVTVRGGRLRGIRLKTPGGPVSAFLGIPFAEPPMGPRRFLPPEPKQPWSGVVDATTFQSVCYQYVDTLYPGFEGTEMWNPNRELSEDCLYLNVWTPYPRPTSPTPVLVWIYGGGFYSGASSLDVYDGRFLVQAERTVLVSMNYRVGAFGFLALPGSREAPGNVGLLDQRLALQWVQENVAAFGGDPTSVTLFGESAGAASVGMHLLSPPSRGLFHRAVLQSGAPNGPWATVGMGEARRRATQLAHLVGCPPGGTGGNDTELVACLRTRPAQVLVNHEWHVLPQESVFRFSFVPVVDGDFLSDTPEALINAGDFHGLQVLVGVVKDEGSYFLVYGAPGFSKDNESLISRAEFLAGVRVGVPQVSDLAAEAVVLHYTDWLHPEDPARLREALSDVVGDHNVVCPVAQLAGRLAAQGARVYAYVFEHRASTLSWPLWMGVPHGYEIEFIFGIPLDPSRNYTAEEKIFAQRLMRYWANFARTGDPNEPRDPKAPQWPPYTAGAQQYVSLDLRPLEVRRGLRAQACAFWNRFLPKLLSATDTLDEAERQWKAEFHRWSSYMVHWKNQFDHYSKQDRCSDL

`O=C(Nc1cncc(OCC2CCN(Cc3ccccc3)CC2)c1)c1ccnc2[nH]ccc12`: the results for the IC50 (in assay [1]; on Acetylcholinesterase [2]; on Acetylcholinesterase [3]) were 0.837 µM, 0.0023 µM and 0.0039 µM, respectively.
Regarding `O=C(NCCC1CCN(Cc2cccc(Cl)c2)CC1)c1cncc(NC(=O)c2ccnc(NC(=O)C3CC3)c2)c1`, the IC50 (as a rule, the concentration that inhibits the measured activity by half) in assay [1] was 0.152 µM.
Consider `O=C(Nc1cccc(OCC2CCN(Cc3ccc(F)cc3)CC2)c1)c1ccnc(NC(=O)C2CC2)c1`, for which the IC50 (in assay [1]; on Acetylcholinesterase [2]) was above 10 µM in each case.
With `CC(=O)Nc1cc(C(=O)Nc2cccc(OCC3CCN(Cc4ccc(F)cc4)CC3)c2)ccn1`, the IC50 (in assay [1]; at Acetylcholinesterase [2]) was above 10 µM in each case.
As for `O=C(NCC1CCN(Cc2ccccc2F)CC1)c1n[nH]c2ccc(-c3cccnc3)cc12`, the IC50 in assay [1] is 0.079 µM; on Acetylcholinesterase [2], 0.718 µM; at Acetylcholinesterase [3], 2.18 µM.
For `CC(=O)Nc1cc(C(=O)Nc2cccc(OCC3CCN(Cc4ccccc4)CC3)c2)ccn1`, the half-maximal inhibitory concentration (IC50) in assay [1] is above 10 µM; at Acetylcholinesterase [2] it was 2.2 µM; at Acetylcholinesterase [3], above 10 µM.
Consider `O=C(NCC1CCN(Cc2ccccc2)CC1)c1cncc(NC(=O)c2ccnc(NC(=O)C3CC3)c2)c1`, for which the half-inhibitory concentration (IC50) in assay [1] came to 0.305 µM; at Acetylcholinesterase [2], 1.1 µM; on Acetylcholinesterase [3] it was 1.1 µM.
As for `O=C(NCC1CCN(Cc2cccc(Cl)c2)CC1)c1cncc(NC(=O)c2ccnc(NC(=O)C3CC3)c2)c1`, the IC50 in assay [1] amounted to 0.231 µM; on Acetylcholinesterase [2], 0.678 µM; on Acetylcholinesterase [3], 1.09 µM.
With `O=C(NCC1CCN(Cc2ccc(F)cc2)CC1)c1cncc(NC(=O)c2ccnc(NC(=O)C3CC3)c2)c1`, the IC50 is 0.244 µM in assay [1], 1.16 µM on Acetylcholinesterase [2] and 3.03 µM on Acetylcholinesterase [3].
For `O=C(NC1CCN(Cc2ccccc2)CC1)c1cncc(NC(=O)c2ccnc3[nH]ccc23)c1`, in that order: 6.8 µM, 0.311 µM and 0.358 µM.
The matching figures for `O=C(NCC1CCN(Cc2cccc(F)c2)CC1)c1cncc(NC(=O)c2ccnc(NC(=O)C3CC3)c2)c1`: 0.097 µM, 1.02 µM and 2.39 µM.
For `O=C(NCC1CCN(Cc2ccc(F)c(F)c2)CC1)c1cncc(NC(=O)c2ccnc(NC(=O)C3CC3)c2)c1`, in that order: 0.279 µM, 1.05 µM and 3.07 µM.
For the molecule `O=C(Nc1cncc(C(=O)NC2CCN(Cc3ccccc3)CC2)c1)c1ccnc(NC(=O)C2CC2)c1`, the half-inhibitory concentration (IC50) in assay [1] was 0.081 µM; at Acetylcholinesterase [2], 0.704 µM; at Acetylcholinesterase [3], 0.622 µM.
As for `O=C(Nc1cncc(OCC2CCN(Cc3ccccc3Cl)CC2)c1)c1ccnc(NC(=O)C2CC2)c1`, the 50% inhibitory concentration (IC50) in assay [1] was 0.079 µM; on Acetylcholinesterase [2], 0.0972 µM; at Acetylcholinesterase [3] it was 0.0816 µM.
For the molecule `O=C(NCC1CCN(Cc2ccccc2)CC1)c1n[nH]c2ccc(-c3cccnc3)cc12`, the values for the IC50 (in assay [1]; at Acetylcholinesterase [2]; at Acetylcholinesterase [3]) were 0.095 µM, 0.552 µM and 1.09 µM, respectively.
The matching figures for `O=C(CC1CCN(Cc2ccccc2)CC1)Nc1n[nH]c2cc(-c3cccnc3)ccc12`: above 10 µM, 0.264 µM and 0.509 µM.
For `Cc1ccccc1CN1CCC(CNC(=O)c2cncc(NC(=O)c3ccnc(NC(=O)C4CC4)c3)c2)CC1`, in that order: 0.157 µM, 3.52 µM and 4.09 µM.
`O=C(NC1CCN(Cc2ccc(F)cc2)CC1)c1cncc(NC(=O)c2ccnc3[nH]ccc23)c1`: the IC50 was 4.93 µM in assay [1], 0.406 µM at Acetylcholinesterase [2] and 0.227 µM on Acetylcholinesterase [3].
For `O=C(Nc1cncc(OC2CCN(Cc3ccccc3)CC2)c1)c1ccnc(NC(=O)C2CC2)c1`, in that order: 0.734 µM, 9.81 µM and above 10 µM.
In the case of `O=C(Nc1cncc(C(=O)NC2CCN(Cc3cccc(Cl)c3)CC2)c1)c1ccnc(NC(=O)C2CC2)c1`, the IC50 in assay [1] came to 0.063 µM; on Acetylcholinesterase [2], 0.951 µM; on Acetylcholinesterase [3], 2.5 µM.
The matching figures for `O=C(CC1CCN(Cc2ccc(F)cc2)CC1)Nc1n[nH]c2cc(-c3cccnc3)ccc12`: above 10 µM, 0.216 µM and 0.518 µM.
The matching figures for `O=C(NCC1CCN(Cc2cccc(Cl)c2)CC1)c1cncc(NC(=O)c2ccnc3[nH]ccc23)c1`: above 10 µM, 0.874 µM and 1.31 µM.
The matching figures for `Cc1cccc(CN2CCC(CNC(=O)c3cncc(NC(=O)c4ccnc(NC(=O)C5CC5)c4)c3)CC2)c1`: 0.198 µM, 4.16 µM and 6360 µM.
Consider `O=C(Nc1cncc(OCC2CCN(Cc3ccccc3F)CC2)c1)c1ccnc(NC(=O)C2CC2)c1`, for which the IC50 in assay [1] is 0.077 µM; at Acetylcholinesterase [2], 0.0101 µM; on Acetylcholinesterase [3] it was 0.0047 µM.
Turning to `CC(=O)Nc1cc(C(=O)Nc2cncc(OCC3CCN(Cc4ccc(F)cc4)CC3)c2)ccn1`, the half-inhibitory concentration (IC50) is 3.51 µM in assay [1], 0.016 µM on Acetylcholinesterase [2] and 0.009 µM on Acetylcholinesterase [3].
For `O=C(Nc1cccc(OCC2CCN(Cc3ccccc3)CC2)c1)c1ccnc(NC(=O)C2CC2)c1`, in that order: 9.75 µM, 0.843 µM and 1.39 µM.
The matching figures for `COc1cccc(CN2CCC(CNC(=O)c3cncc(NC(=O)c4ccnc(NC(=O)C5CC5)c4)c3)CC2)c1`: 0.126 µM, 8.91 µM and above 10 µM.
Turning to `O=C(NCC1CCN(Cc2ccccc2F)CC1)c1cncc(NC(=O)c2ccnc(NC(=O)C3CC3)c2)c1`, the IC50 turned out to be 0.164 µM in assay [1], 1.72 µM at Acetylcholinesterase [2] and 1.76 µM on Acetylcholinesterase [3].
Take `O=C(CC1CCN(Cc2ccccc2F)CC1)Nc1n[nH]c2cc(-c3cccnc3)ccc12`: the IC50 in assay [1] was above 10 µM; at Acetylcholinesterase [2], 0.39 µM; on Acetylcholinesterase [3] it was 0.691 µM.
For the molecule `COc1cc2c(cc1OC)C(=O)C(CC1CCN(Cc3ccccc3)CC1)C2` (configuration not stated) [DONEPEZIL], in assay [1], the IC50 was above 10 µM. The result with Mus musculus [4], with Mus musculus [5] and with Mus musculus [6] was Active.

(Values after ChEMBL document CHEMBL4831493 (Eur J Med Chem, 2021).)
